The source of these data is patent EP1174152B1, “Inclusion complex of an opioid peptide with cyclodextrin” (COUNCIL OF SCIENTIFIC AND INDUSTRIAL RESEARCH, priority 2000, dated 2002).

The subject of one data set is leucine amino peptidase. The conditions noted are these: enzyme hydrolysis with leucine amino peptidase; cited from earlier work.
The subject of another data set is rhesus monkeys. Briefly: 30 days toxicity study by subcutaneous route in rhesus monkey. In kind it is in vivo. As to conditions: once daily for 30 consecutive days, 3.75, 7.5 and 15 mg/kg. As for the experimental part: (§1) 30 days toxicity study of L-Tyrosyl-D-alanyl-glycyl-N-methylphenylanyl-glycyl-isopropylamide in rat and rhesus monkey by subcutaneous route.
(§2) Compound L-Tyrosyl-D-alanyl-glycyl-N-methylphenylalanyl-glycyl-isopropylamide dissolved in saline was given daily by subcutaneous route to groups of rats (n=10 males and 10 females in each group) and rhesus monkeys (n=2 males and 2 females in each group) once daily for 30 consecutive days. The dose levels used in rats were 0 0, 7.5, 15.0 and 30.0 mg/kg and in monkeys 0.0, 3.75, 7.5 and 15 mg/kg. Dose levels were selected on the basis of rat ED of 3.0 mg/kg and extrapolation thereof in the monkey. […]
(§3) Body weights (weekly in rats, initial and day 30 in monkeys), daily food (rat and monkeys) and water (rat only) consumption and parameters of hematology, urinalysis and blood biochemistry of the animals was recorded All the animals were sacrificed at the end of 30 days Necropsy was performed and histophathological examination of all the important organs and tissues were done. […]
(§4) During necropsy examination of the external surface of the body, all orifices, and the cranial thoracic and abdominal cavities and their contents was performed. […] Liver, kidneys, adrenals, brain heart lungs, spleen and gonads were weighed, and their rdative weights were also calculated. […]

Another data set concerns rats. Kind of data set: 30 days toxicity study by subcutaneous route in rat. In kind it is in vivo. The conditions noted are these: once daily for 30 consecutive days, 7.5, 15.0 and 30.0 mg/kg. As for the experimental part:
as §1, §2, §3, §4

For Leu-enkephalin, the half life with leucine amino peptidase is 45 min.

On to `CC(C)NC(=O)CNC(=O)[C@H](Cc1ccccc1)N(C)C(=O)CNC(=O)[C@@H](C)NC(=O)[C@@H](N)Cc1ccc(O)cc1` [L-Tyrosyl-D-alanyl-glycyl-N-methylphenylalanyl-glycyl-isopropylamide], for which the “30-day toxicity study outcome” value in the data set on rhesus monkeys and in the data set on rats was “found safe” in each case.
